ChEMBL document CHEMBL5244273, “Tuberculosis: An Overview of the Immunogenic Response, Disease Progression, and Medicinal Chemistry Efforts in the Last Decade toward the Development of Potential Drugs for Extensively Drug-Resistant Tuberculosis Strains” (J Med Chem, 2021)
≈ marks a conversion by molar mass, not a printed value.

Columns and labels:
[1] = Selectivity index, ratio of IC50 for cytotoxicity against Chinese hamster CHO-K1 cells to MIC for antimycobacterial activity against Mycobacterium tuberculosis H37Rv; assay type: toxicity, cell-based; conditions: read-out: Selectivity Index
[2] = Cytotoxicity against Chinese hamster CHO-K1 cells assessed as inhibition of cell growth; assay type: toxicity, cell-based, Cricetulus griseus
[3] = tested on: Mycobacterium tuberculosis; assay: Antimycobacterial activity against Mycobacterium tuberculosis H37Rv; assay type: functional
[4] = tested on: Mycobacterium tuberculosis; assay: Antitubercular activity against Mycobacterium tuberculosis XDR-FJ05195 assessed as inhibition of bacterial growth by microplate alamar blue assay; assay type: functional
[5] = tested on: Staphylococcus epidermidis; assay: Antibacterial activity against Staphylococcus epidermidis; assay type: functional
[6] = tested on: Mycobacterium tuberculosis; assay: Antitubercular activity against Mycobacterium tuberculosis MDR-FJ05189 assessed as inhibition of bacterial growth by microplate alamar blue assay; assay type: functional
[7] = tested on: Mycobacterium tuberculosis; assay: Antitubercular activity against Mycobacterium tuberculosis STB-FJ05349 assessed as inhibition of bacterial growth by microplate alamar blue assay; assay type: functional
Escherichia coli = assay: Antibacterial activity against ESBL negative Escherichia coli ATCC 25922; assay type: functional
Staphylococcus aureus = assay: Antibacterial activity against methicillin susceptible Staphylococcus aureus ATCC 29213; assay type: functional
[8] = tested on: Mycobacterium tuberculosis; assay: Antitubercular activity against Mycobacterium tuberculosis H37Rv ATCC 27294 assessed as inhibition of bacterial growth by microplate alamar blue assay; assay type: functional
[9] = tested on: Mycobacterium tuberculosis; assay: Antitubercular activity against Mycobacterium tuberculosis STB-FJ05060 assessed as inhibition of bacterial growth by microplate alamar blue assay; assay type: functional
[10] = tested on: Mycobacterium tuberculosis; assay: Antitubercular activity against Mycobacterium tuberculosis MDR-FJ05120 assessed as inhibition of bacterial growth by microplate alamar blue assay; assay type: functional
[11] = tested on: Mycobacterium tuberculosis; assay: Antitubercular activity against Mycobacterium tuberculosis H37Rv by resazurin microtitre assay; assay type: functional
[12] = (§1) Cytotoxicity against African green monkey Vero cells; assay type: toxicity, cell-based, Chlorocebus sabaeus; conditions: African green monkey, Vero cells
[13] = Cytotoxicity against HEK293T cells assessed as reduction in cell viability; assay type: toxicity, cell-based, HEK-293T; conditions: human
[14] = tested on: Mycobacterium tuberculosis; assay: Antimycobacterial activity against Mycobacterium tuberculosis H37Rv assessed as inhibition of bacterial growth incubated for 5 days by alamar blue assay; assay type: functional; conditions: 120 h, time 5 day
[15] = Cytotoxicity against African green monkey Vero cells assessed as inhibition of cell growth incubated for 72 hrs by MTT assay; assay type: toxicity, cell-based, Chlorocebus sabaeus
[16] = tested on: Mycobacterium tuberculosis; assay: Antimycobacterial activity against Mycobacterium tuberculosis H37Rv […]; assay type: functional
Vero = assay: as §1; assay type: toxicity, cell-based, Chlorocebus sabaeus; conditions: chlorocebus sabaeus, vero
[17] = tested on: Mycobacterium tuberculosis; assay: Antimycobacterial activity against Mycobacterium tuberculosis H37Rv incubated for 5 weeks; assay type: functional; conditions: 840 h
[18] = tested on: Mycobacterium tuberculosis; assay: Antimycobacterial activity against Mycobacterium tuberculosis H37Rv incubated for 3 weeks; assay type: functional; conditions: 504 h
[19] = tested on: Mycobacterium tuberculosis; assay: Antimycobacterial activity against Mycobacterium tuberculosis H37Rv incubated for 2 weeks; assay type: functional; conditions: 336 h
[20] = tested on: Mycobacterium tuberculosis; assay: Antimycobacterial activity against Mycobacterium tuberculosis H37Rv incubated for 4 weeks; assay type: functional; conditions: 672 h
[21] = tested on: Mycobacterium tuberculosis; assay: Antitubercular activity against Mycobacterium tuberculosis H37Rv assessed as inhibition of bacterial growth by alamar blue assay; assay type: functional
[22] = tested on: Mycobacterium tuberculosis; assay: Antitubercular activity against active stage of Mycobacterium tuberculosis H37Ra; assay type: functional
[23] = tested on: Mycobacterium tuberculosis; assay: Antitubercular activity against dormant stage of Mycobacterium tuberculosis H37Ra; assay type: functional

S=c1[nH]nc(-c2ccccc2)o1
selectivity ratio [1]: 15.1 | IC50 [2]: 33.3 mg/L (≈ 187 µM) | MIC [3]: 2.2 mg/L (≈ 12.3 µM)

O=C(Nc1nc(-c2ccccn2)cs1)c1ccc(Cl)s1
MIC [4]: 0.25 mg/L (≈ 0.777 µM) | MIC [5]: 32 mg/L (≈ 99.4 µM) | MIC [6]: 4 mg/L (≈ 12.4 µM) | MIC [7]: 0.08 mg/L (≈ 0.249 µM) | MIC (Escherichia coli): 256 mg/L (≈ 795 µM) | MIC (Staphylococcus aureus): 32 mg/L (≈ 99.4 µM) | MIC [8]: 0.08 mg/L (≈ 0.249 µM) | MIC [9]: 0.08 mg/L (≈ 0.249 µM) | MIC [10]: 0.25 mg/L (≈ 0.777 µM)

CCN(CC)CCOc1c(C(=O)OC)c2c3c(oc2c2ccccc12)C(=O)c1ccccc1C3=O
MIC50 [11]: 0.19 mg/L (≈ 0.403 µM)

Oc1ccc(-c2nnc(S)o2)cc1
selectivity ratio [1]: 39.6 | MIC [3]: 0.6 mg/L (≈ 3.09 µM)

CC(=O)N1N=C(c2ccc3oc(-c4ccc(O)cc4)nc3c2)CC1c1cccs1 (stereo unspecified)
IC50 [12]: 32.5 mg/L (≈ 80.6 µM) | MIC [3]: 0.8 mg/L (≈ 1.98 µM)

Cc1nc(C)c(-c2nnc(S)o2)s1
IC50 [2]: 21.7 mg/L (≈ 102 µM) | MIC [3]: 1.3 mg/L (≈ 6.1 µM)

CC(=O)N1/C(=C/c2cccc(-c3cnc4ccccc4c3)c2)C(=O)c2ccccc21
MIC90 [3]: 2.65 µM (≈ 1.03 µg/mL) | MIC99 [3]: 3.13 µM (≈ 1.22 µg/mL) | CC50 [13]: 14 µM

Cc1cc(O)n2nc(Nc3ccc(Cl)c(Cl)c3)c(C(N)=O)c2n1
MIC [14]: 6.25 mg/L (≈ 17.7 µM) | IC50 at 72 h [15]: 29 mg/L (≈ 82.4 µM)

CC(=O)N1N=C(c2ccc3oc(NC(=O)CCl)nc3c2)CC1c1cccs1 (stereo unspecified)
IC50 [12]: > 62.5 mg/L | MIC [3]: 6.25 mg/L (≈ 15.5 µM)

Cc1ccc(NC(=O)c2c(Nc3ccc(Cl)cc3)nn3c(O)cc(C)nc23)cc1
MIC [14]: 3.12 mg/L (≈ 7.65 µM) | IC50 at 72 h [15]: 21 mg/L (≈ 51.5 µM)

CC(=O)N1/C(=C/c2ccc(-c3ccc(C)cc3)cc2)C(=O)c2ccccc21
MIC [16]: 14.8 µM (≈ 5.23 µg/mL) | MIC90 [3]: 2.71 µM (≈ 0.958 µg/mL) | MIC99 [3]: 4.37 µM (≈ 1.54 µg/mL)

CC(=O)N1/C(=C/c2ccc(-c3ccccc3)cc2)C(=O)c2ccccc21
MIC [16]: 12.3 µM (≈ 4.17 µg/mL) | MIC90 [3]: 1.32 µM (≈ 0.448 µg/mL) | MIC99 [3]: 2.29 µM (≈ 0.777 µg/mL)

CC(=O)N1/C(=C/c2cccc(-c3ccc(Cl)cc3)c2)C(=O)c2ccccc21
MIC90 [3]: 6.44 µM (≈ 2.41 µg/mL) | MIC99 [3]: 7.85 µM (≈ 2.93 µg/mL) | CC50 [13]: 4 µM

Sc1nnc(-c2cc3ccccc3[nH]2)o1
selectivity ratio [1]: 16.6 | IC50 [2]: 21.6 mg/L (≈ 99.4 µM) | MIC [3]: 1.3 mg/L (≈ 5.98 µM)

COc1ccccc1NC(=O)c1c(Nc2cccc(C)c2)nn2c(O)cc(C)nc12
MIC [14]: 3.12 mg/L (≈ 7.73 µM) | IC50 at 72 h [15]: 21.3 mg/L (≈ 52.7 µM)

Sc1nnc(-c2ccc(I)cc2)o1
selectivity ratio [1]: 51.8 | IC50 [2]: 46.7 mg/L (≈ 154 µM) | MIC [3]: 0.9 mg/L (≈ 2.96 µM)

CC(=O)N1/C(=C/c2ccc(Br)cc2)C(=O)c2ccccc21
MIC [16]: 15.2 µM (≈ 5.2 µg/mL) | MIC90 [3]: 0.31 µM (≈ 0.106 µg/mL) | MIC99 [3]: 0.37 µM (≈ 0.127 µg/mL)

CC(=O)N1/C(=C/c2ccc(-c3ccc(Cl)cc3)cc2)C(=O)c2ccccc21
MIC [16]: 8.37 µM (≈ 3.13 µg/mL) | MIC90 [3]: 2.32 µM (≈ 0.867 µg/mL) | MIC99 [3]: 4.05 µM (≈ 1.51 µg/mL) | CC50 [13]: 7 µM

CC(=O)N1/C(=C/c2ccccc2)C(=O)c2cc(-c3ccccc3)ccc21
MIC90 [3]: 1.24 µM (≈ 0.421 µg/mL) | MIC99 [3]: 1.39 µM (≈ 0.472 µg/mL) | CC50 [13]: 12 µM

Sc1nnc(-c2cc(Br)co2)o1
selectivity ratio [1]: 25.6 | IC50 [2]: 35.5 mg/L (≈ 144 µM) | MIC [3]: 1.5 mg/L (≈ 6.07 µM)

Cc1cc(O)n2nc(Nc3ccc(F)c(F)c3)c(C(=O)Nc3ccc(F)cc3)c2n1
MIC [14]: 0.8 mg/L (≈ 1.94 µM) | IC50 at 72 h [15]: 13.6 mg/L (≈ 32.8 µM)

COc1cccc(C(=O)Nc2nc3cc(C4=NN(C(C)=O)C(c5cccs5)C4)ccc3o2)c1 (stereo unspecified)
IC5 (Vero): > 62.5 µg/mL | MIC [3]: 1.6 mg/L (≈ 3.47 µM)

Sc1nnc(-c2cc3ccccc3o2)o1
selectivity ratio [1]: 26.4 | IC50 [2]: 34.4 mg/L (≈ 158 µM) | MIC [3]: 1.3 mg/L (≈ 5.96 µM)

CC[C@@H](CO)NCCN[C@@H](CC)CO [ETHAMBUTOL]
MIC [11]: 0.78 mg/L (≈ 3.82 µM)

NNC(=O)c1ccncc1 [ISONIAZID]
MIC [4]: > 256 mg/L | MIC [6]: < 0.5 mg/L | MIC [7]: < 0.5 mg/L | MIC [14]: 0.5 mg/L (≈ 3.65 µM) | MIC [8]: 0.125 mg/L (≈ 0.911 µM) | MIC [11]: 0.19 mg/L (≈ 1.39 µM) | MIC [9]: < 0.5 mg/L | MIC [3]: 0.5 mg/L (≈ 3.65 µM) | MIC [10]: 4 mg/L (≈ 29.2 µM)

C[C@H]1COc2c(N3CCN(C)CC3)c(F)cc3c(=O)c(C(=O)O)cn1c23.C[C@H]1COc2c(N3CCN(C)CC3)c(F)cc3c(=O)c(C(=O)O)cn1c23.O [LEVOFLOXACIN]
MIC [5]: 0.25 mg/L | MIC (Staphylococcus aureus): 0.25 mg/L | MIC [17]: 0.25 mg/L | MIC [18]: 0.25 mg/L | MIC [19]: 0.25 mg/L | MIC [20]: 0.25 mg/L

NC(=O)c1cnccn1 [PYRAZINAMIDE]
MIC [14]: 3.12 mg/L (≈ 25.3 µM) | MIC [21]: 3.12 mg/L (≈ 25.4 µM) | MIC [11]: > 200 mg/L | MIC [3]: 3.12 mg/L (≈ 25.3 µM)

CO[C@H]1/C=C/O[C@@]2(C)Oc3c(C)c(O)c4c(O)c(c(/C=N/N5CCN(C)CC5)c(O)c4c3C2=O)NC(=O)/C(C)=C\C=C\[C@H](C)[C@H](O)[C@@H](C)[C@@H](O)[C@@H](C)[C@H](OC(C)=O)[C@@H]1C [RIFAMPIN]
MIC [4]: 4 mg/L (≈ 4.86 µM) | MIC [6]: > 256 mg/L | MIC [7]: < 0.5 mg/L | MIC [16]: 0.377 µM (≈ 0.31 µg/mL) | MIC [22]: 0.75 mg/L (≈ 0.911 µM) | MIC [23]: 0.91 mg/L (≈ 1.11 µM) | MIC [8]: 0.125 mg/L (≈ 0.152 µM) | MIC [11]: 0.049 mg/L (≈ 0.0595 µM) | MIC [9]: < 0.5 mg/L | MIC90 [3]: 0.00291 µM (≈ 0.00239 µg/mL) | MIC99 [3]: 0.00482 µM (≈ 0.00397 µg/mL) | MIC [10]: > 256 mg/L

CN[C@@H]1[C@H](O[C@H]2[C@H](O[C@H]3[C@H](O)[C@@H](O)[C@H](N=C(N)N)[C@@H](O)[C@@H]3N=C(N)N)O[C@@H](C)[C@]2(O)C=O)O[C@@H](CO)[C@H](O)[C@H]1O [STREPTOMYCIN]
MIC [14]: 6.25 mg/L (≈ 10.7 µM) | MIC [21]: 6.25 mg/L (≈ 10.7 µM) | MIC [11]: 0.19 mg/L (≈ 0.327 µM) | MIC [3]: 6.25 mg/L (≈ 10.7 µM)
